Tests used:
[1] = target: T1, Serine/threonine-protein kinase Chk2 [209-531,Q209M] (Homo sapiens, UniProt O96017, Q209M); test: IMAP High-Throughput Screening; conditions: pH 7.2; 23 °C
T1 construct: 209-531
Method: The IMAP Screening Express Kit (Molecular Devices, Sunnyvale, CA) was used for the high-throughput screening experiments. Compounds from the Developmental Therapeutics Program (DTP) Open Repository were solubilized and diluted in DMSO and initially tested at one concentration in the assay. Active compounds were subsequently titrated at 20 2-fold dilutions. Reactions were performed using recombinant Chk2 with the indicated drug concentrations in reaction buffer in 384-well black microplate (Greiner Bio-One, Longwood, FL)] for 60 min at room temperature. IMAP binding reagent was added to each well, plates were incubated for 30 min at room temperature, and fluorescence polarization was measured using a Tecan Ultra plate reader. Each screening plate contained staurosporine as a positive control.

[2] = target: T1, Serine/threonine-protein kinase Chk2 [209-531,Q209M]; test: In Vitro Protein Kinase Assay; conditions: pH 7.5; 30 °C
Method: Recombinant Chk2 was incubated with either histone H1 (or GST-Cdc25C) in reaction buffer, and incubated at 30 deg C for indicated times. For the drug inhibition experiments, samples were coincubated with drug during the reactions. Reactions were stopped by adding sample buffer, and samples were boiled for 5 min. Reaction products were separated by 4-20% SDS-PAGE. Chk2 protein kinase activity, measured as 32P incorporation into Chk2, histone H1 (or GST-Cdc25C), was determined using a PhosphorImager (GE Healthcare, Chalfont St. Giles, Buckinghamshire, UK). Densitometry was performed using Image-Quant.

T1 sequence (O96017 209-531 Q209M): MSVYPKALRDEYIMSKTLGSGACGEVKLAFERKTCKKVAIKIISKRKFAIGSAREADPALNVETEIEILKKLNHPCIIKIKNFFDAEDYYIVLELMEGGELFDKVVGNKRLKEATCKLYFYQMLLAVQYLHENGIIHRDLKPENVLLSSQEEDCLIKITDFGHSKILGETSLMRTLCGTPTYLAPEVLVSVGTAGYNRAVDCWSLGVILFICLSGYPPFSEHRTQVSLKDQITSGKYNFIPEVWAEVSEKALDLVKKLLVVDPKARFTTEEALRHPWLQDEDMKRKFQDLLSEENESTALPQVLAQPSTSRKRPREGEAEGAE

Structure (SMILES)	IC50 [1] [µM]	IC50 [2] [µM]
CC(=NN=C(N)N)c1ccc(NC(=S)Nc2ccccc2)cc1 [NSC 177940]	> 20	
CC(C=NNC(=N)N)=NNC(=N)N [NSC 69432 (MGBG)]	> 20	
CC(=NN=C(N)N)c1ccc(NC(=O)Nc2ccc(C(C)=NN=C(N)N)cc2)cc1 [diacetyldiphenylurea bisguanylhydrazone]	0.2	0.24
CNC(=O)Nc1ccc(C(C)=NNC(N)=S)cc1 [NSC 377844]	> 20	
NC1=NC(=O)C(=C2CCNC(=O)c3[nH]ccc32)N1 [B722657K110]		0.42
CC(=NN=C(N)N)c1cccc(NC(=O)Nc2cccc(C(C)=NN=C(N)N)c2)c1 [NSC 177944]	> 20	
CC(=NN=C(N)N)c1ccc(C(C)=NN=C(N)N)cc1 [NSC 67931]	> 20	
CC(=NN=C(N)N)c1cccc(NC(=S)Nc2cccc(C(C)=NN=C(N)N)c2)c1 [NSC 177941]	> 20	
